Data on 19 molecules can be found in patent publication US7109193B2, “Tricyclic diazepines tocolytic oxytocin receptor antagonists” (Wyeth, priority 2001, dated 2006).

The structures appear in SMILES notation.

One data set deals with T1, human oxytocin receptor (Homo sapiens, UniProt P30559).
T1 construct: host or cells: CHO cells (pcDNA3.1 vector)
T1 sequence (P30559 1-389): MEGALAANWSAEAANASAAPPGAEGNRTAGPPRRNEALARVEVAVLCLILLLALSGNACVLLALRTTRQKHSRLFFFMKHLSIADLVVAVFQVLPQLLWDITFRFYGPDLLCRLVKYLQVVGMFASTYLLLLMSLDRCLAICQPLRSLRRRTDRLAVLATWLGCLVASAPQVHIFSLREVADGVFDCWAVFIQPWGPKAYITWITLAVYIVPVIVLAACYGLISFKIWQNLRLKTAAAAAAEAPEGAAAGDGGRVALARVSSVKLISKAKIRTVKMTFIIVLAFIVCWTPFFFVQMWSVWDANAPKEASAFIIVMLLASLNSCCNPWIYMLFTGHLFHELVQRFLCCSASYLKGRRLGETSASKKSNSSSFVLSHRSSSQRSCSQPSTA
As to the kind of experiment: Oxytocin binding in Chinese Hamster Ovary cell membranes expressing human oxytocin receptors. Particulars: CHO cell membranes, [3H]oxytocin, values in parentheses, read-out: OT (IC50).

For orientation: IC50 means the point on the concentration scale where inhibition reaches its midpoint. By melting point is commonly meant the temperature of the solid-liquid transition. Consider `Cc1cc(C(=O)N2Cc3ccc(C(=O)N4CCN(CCCN(C)C)CC4)n3Cc3ccccc32)ccc1-c1ccccc1C(F)(F)F` [Example 4, [4-(3-Dimethylaminopropyl)-piperazin-1-yl]-[10-(2-methyl-2′-trifluoromethyl-[1,1′-biphenyl]-4-yl)carbonyl]-[10,11-dihydro-5H-pyrrolo[2,1-c][1,4]benzodiazepin-3-yl]-methanone], for which the melting point is 85 to 95 °C. For the same molecule, the IC50 on human oxytocin receptor was 8.89 nM. In the case of `COc1cc(C(=O)N2Cc3ccc(C(=O)N4CCC[C@H]4CN4CCCC4)n3Cc3ccccc32)ccc1-c1ccccc1C(F)(F)F` [Example 20, {[10-(2-Methoxy)-2′-trifluoromethyl-[1,1′-biphenyl]-4-yl]carbonyl}-[(2S)-[(2-pyrrolidin-1-yl)methyl]pyrrolidin-1-yl]-10,11-dihydro-5H-pyrrolo[2,1-c][1,4]benzodiazepin-3-yl-methanone], the melting point was 125 to 128 °C. Moreover, the IC50 on human oxytocin receptor was 1.81 nM. Molecule `COc1cc(C(=O)N2Cc3ccc(C(=O)N(C)CCCN(C)C)n3Cc3ccccc32)ccc1-c1ccccc1C(F)(F)F` [Example 21, N-Methyl-[N-(3-dimethylamino)propyl]-10-{[2-methoxy-2′-trifluoromethyl-[1,1′-biphenyl]-4-yl]carbonyl}-10,11-dihydro-5H-pyrrolo[2,1-c][1,4]benzodiazepin-3-carboxamide] showed a melting point of 140 to 142 °C. The 50% inhibitory concentration (IC50) on human oxytocin receptor turned out to be 1.7 nM. For `COc1cc(C(=O)N2Cc3ccc(C(=O)N(C)CCN(C)C)n3Cc3ccccc32)ccc1-c1ccccc1C(F)(F)F` [Example 22, N-Methyl-[N-(2-dimethylamino)ethyl]-10-{[2-methoxy-2′-trifluoromethyl-[1,1′-biphenyl]-4-yl]carbonyl}-10,11-dihydro-5H-pyrrolo[2,1-c][1,4]benzodiazepine-3-carboxamide], the melting point lay within 187 to 190 °C. In addition, the IC50 at human oxytocin receptor was determined as 1.74 nM. For `O=C(c1ccc(-c2cccc3ccccc23)cc1Cl)N1Cc2cccn2Cc2ccccc21` [Example 24, [2-Chloro-4-(naphthalen-1-yl)phenyl][10,11-dihydro-5H-pyrrolo[2,1-c][1,4]benzodiazepin-10-yl]methanone], the melting point fell in the range of 115 to 117.5 °C. In addition, the IC50 at human oxytocin receptor came to 8 nM. The matching figures for `Cc1ccc(-c2ccc(C(=O)N3Cc4cccn4Cc4ccccc43)cc2)c2ccccc12` [Example 25, [4-(4-Methyl-naphthalen-1-yl)phenyl][10,11-dihydro-5H-pyrrolo[2,1-c][1,4]benzodiazepin-10-yl]methanone]: 160 to 162 °C and 55.8 nM. `COc1cc(C(=O)N2Cc3cccn3Cc3ccccc32)ccc1-n1c(C)ccc1C` [Example 27, [4-(2,5-Dimethyl-1-H-pyrrol-1-yl)-3-methoxy-phenyl][10,11-dihydro-5H-pyrrolo[2,1-c][1,4]benzodiazepin-10-yl]methanone]: the melting point was in the range of 141 to 144 °C. Also, at human oxytocin receptor, the IC50 worked out at 18.1 nM.

Take `O=C(c1ccc(-c2cccc3ccccc23)nc1)N1Cc2cccn2Cc2ccccc21` [Example 28, [6-(Naphthalen-1-yl)-pyridin-3-yl]-[10,11-dihydro-5H-pyrrolo[2,1-c][1,4]benzodiazepin-10-yl]methanone]: the melting point lay in the range of 155 to 158 °C. Moreover, the half-maximal inhibitory concentration (IC50) at human oxytocin receptor amounted to 29.5 nM. With `C=CCN1CCN(C(=O)c2ccc3n2Cc2ccccc2N(C(=O)c2cc(Cl)c(-c4ccccc4C)cc2OC)C3)CC1` [Example 219, (4-Allyl-1-piperazinyl){10-[(6-chloro-3-methoxy-2′-methyl[1,1′-biphenyl]-4-yl)carbonyl]-10,11-dihydro-5H-pyrrolo[2,1-c][1,4]benzodiazepin-3-yl}methanone], the IC50 at human oxytocin receptor was found to be 12.1 nM.

`C=CCN1CCN(C(=O)c2ccc3n2Cc2ccccc2N(C(=O)c2ccc(-c4ccccc4C)c(C)c2)C3)CC1` [Example 220, (4-Allyl-1-piperazinyl){10-[(2,2′-dimethyl[1,1′-biphenyl]-4-yl)carbonyl]-10,11-dihydro-5H -pyrrolo[2,1-c][1,4]benzodiazepin-3-yl}methanone]: the concentration for half-maximal inhibition (IC50) at human oxytocin receptor worked out at 7.2 nM.

Turning to `C=CCN1CCN(C(=O)c2ccc3n2Cc2ccccc2N(C(=O)c2ccc(-c4ccccc4OC)cc2)C3)CC1` [Example 221, (4-Allyl-1-piperazinyl){10-[(2′-methoxy[1,1′-biphenyl]4-yl)carbonyl]-10,11-dihydro-5H -pyrrolo[2,1-c][1,4]benzodiazepin-3-yl}methanone], the IC50 at human oxytocin receptor worked out at 11.1 nM.

As to `COc1ccccc1-c1ccc(C(=O)N2Cc3ccc(C(=O)N4CCN(CCCN(C)C)CC4)n3Cc3ccccc32)cc1C` [Example 245, {4-[3-(Dimethylamino)propyl]-1-piperazinyl}{10-[(2′-methoxy-2-methyl[1,1′-biphenyl]-4-yl)carbonyl]-10,11-dihydro-5H-pyrrolo[2,1-c][1,4]benzodiazepin-3-yl}methanone], the IC50 at human oxytocin receptor worked out at 16.9 nM. `COc1ccccc1-c1ccc(C(=O)N2Cc3ccc(C(=O)N4CCN(CCCN(C)C)CC4)n3Cc3ccccc32)cc1` [Example 246, {4-[3-(Dimethylamino)propyl]-1-piperazinyl}{10-[(2′-methoxy[1,1′-biphenyl]-4-yl)carbonyl]-10,11-dihydro-5H-pyrrolo[2,1-c][1,4]benzodiazepin-3-yl}methanone]: the IC50 on human oxytocin receptor worked out at 17.8 nM.

Consider `Cc1cc(C(=O)N2Cc3ccc(C(=O)N4CCC[C@H]4CN4CCCC4)n3Cc3ccccc32)ccc1-c1ccccc1C(F)(F)F` [Example 258, (10-{[2-Methyl-2′-(trifluoromethyl)[1,1′-biphenyl]-4-yl]carbonyl}-10,11-dihydro-5H-pyrrolo[2,1-c][1,4]benzodiazepin-3-yl)[(2S)-2-(1-pyrrolidinylmethyl)pyrrolidinyl]methanone], for which the concentration for half-maximal inhibition (IC50) at human oxytocin receptor amounted to 2.85 nM.

On to `COc1cccc(-c2ccc(C(=O)N3Cc4ccc(C(=O)N5CCC[C@H]5CN5CCCC5)n4Cc4ccccc43)cc2C)c1` [Example 263, {10-[(3′-Methoxy-2-methyl[1,1′-biphenyl]-4-yl)carbonyl]-10,11-dihydro-5H-pyrrolo[2,1-c][1,4]benzodiazepin-3-yl}[(2S)-2-(1-pyrrolidinylmethyl)pyrrolidinyl]methanone], for which, at human oxytocin receptor, the 50% inhibitory concentration (IC50) turned out to be 2.31 nM. Still for that read-out and setting: next, `Cc1cc(C(=O)N2Cc3ccc(C(=O)N4CC[C@@H](N(C)C)C4)n3Cc3ccccc32)ccc1-c1ccccc1C(F)(F)F` [Example 271, [(3R)-3-(Dimethylamino)pyrrolidinyl](10-{[2-methyl-2′-(trifluoromethyl)[1,1′-biphenyl]-4-yl]carbonyl}-10,11-dihydro-5H-pyrrolo[2,1-c][1,4]benzodiazepin-3-yl)methanone]: 6.29 nM; `COc1ccccc1-c1ccc(C(=O)N2Cc3ccc(C(=O)N4CC[C@@H](N(C)C)C4)n3Cc3ccccc32)cc1C` [Example 272, [(3R)-3-(Dimethylamino)pyrrolidinyl]{10-[(2′-methoxy-2-methyl[1,1′-biphenyl]-4-yl)carbonyl]-10,11-dihydro-5H-pyrrolo[2,1-c][1,4]benzodiazepin-3-yl}methanone]: 2.61 nM; `COc1cc(-c2ccccc2C)c(Cl)cc1C(=O)N1Cc2ccc(C(=O)N3CC[C@@H](N(C)C)C3)n2Cc2ccccc21` [Example 273, {10-[(6-Chloro-3-methoxy-2′-methyl[1,1′-biphenyl]-4-yl)carbonyl]-10,11-dihydro-5H-pyrrolo[2,1-c][1,4]benzodiazepin-3-yl}[(3R)-3-(dimethylamino)pyrrolidinyl]methanone]: 4.26 nM. Regarding `COc1cccc(-c2ccc(C(=O)N3Cc4ccc(C(=O)N5CC[C@@H](N(C)C)C5)n4Cc4ccccc43)cc2C)c1` [Example 278, [(3R)-3-(Dimethylamino)pyrrolidinyl]{10-[(3′-methoxy-2-methyl[1,1′-biphenyl]-4-yl)carbonyl]-10,11-dihydro-5H-pyrrolo[2,1-c][1,4]benzodiazepin-3-yl}methanone], at human oxytocin receptor, the IC50 was 7.87 nM.
